Experimental data published in patent US6156899A, “N-aryl-2-hydroxyalkylamido compositions for inducing/stimulating hair growth and/or retarding hair loss and/or for treating hyperseborrhea and/or acne” (Societe L'Oreal S.A., priority 1997, dated 2000).
Read-outs that look alike come from different tables or passages of the source.

Legend:
androgen receptor = biological target: T1, androgen receptor (Rattus norvegicus, UniProt P15207); test: Affinity (IC50) for the androgen receptor: inhibition of the binding of testosterone (Schilling and Liao technique)
T1 sequence (P15207 1-902): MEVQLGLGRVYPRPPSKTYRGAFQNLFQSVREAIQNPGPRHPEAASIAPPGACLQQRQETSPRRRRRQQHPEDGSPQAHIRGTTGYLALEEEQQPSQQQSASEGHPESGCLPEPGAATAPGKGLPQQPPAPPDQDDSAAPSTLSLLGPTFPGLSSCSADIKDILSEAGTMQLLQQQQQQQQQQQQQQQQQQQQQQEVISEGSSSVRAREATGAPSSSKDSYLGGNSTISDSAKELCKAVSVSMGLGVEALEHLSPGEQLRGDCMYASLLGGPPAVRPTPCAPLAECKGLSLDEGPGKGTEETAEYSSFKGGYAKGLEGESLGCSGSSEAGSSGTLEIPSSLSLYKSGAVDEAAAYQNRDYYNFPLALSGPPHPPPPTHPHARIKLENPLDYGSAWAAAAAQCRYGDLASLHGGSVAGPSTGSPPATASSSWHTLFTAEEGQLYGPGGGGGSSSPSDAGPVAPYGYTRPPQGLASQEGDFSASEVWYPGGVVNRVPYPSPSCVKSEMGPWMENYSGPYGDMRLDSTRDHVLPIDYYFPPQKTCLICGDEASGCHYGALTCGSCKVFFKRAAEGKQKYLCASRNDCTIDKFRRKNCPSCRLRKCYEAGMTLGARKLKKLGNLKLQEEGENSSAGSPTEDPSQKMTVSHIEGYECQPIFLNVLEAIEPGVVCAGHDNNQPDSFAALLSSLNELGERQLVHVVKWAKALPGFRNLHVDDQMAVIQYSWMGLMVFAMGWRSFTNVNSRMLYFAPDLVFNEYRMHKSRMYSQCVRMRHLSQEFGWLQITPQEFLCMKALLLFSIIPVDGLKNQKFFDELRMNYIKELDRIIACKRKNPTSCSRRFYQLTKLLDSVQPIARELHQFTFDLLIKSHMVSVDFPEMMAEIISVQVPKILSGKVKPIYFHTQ
Procedure: Measurement of the Affinity (IC50) of the Ethyl Ester of (4-Cyano-3-(trifluoromethyl)phenyl)(3,3,3-trifluoro-2-hydroxy-2-methylpropionyl)carbamic Acid (Example 1) and of (4-Cyano-3-(trifluoromethyl)phenyl)(3,3,3-trifluoro-2-hydroxy-2-methylpropionyl)carbamic Acid (Example 2) for the Androgen Receptor:
These measurements of receptor affinity for the androgen receptor were carried out according to the technique of Schilling and Liao, described in The Prostate, 5, p. 581-588 (1984).
During the experimentation, the reference molecule (mibolerone) was tested in parallel at 8 concentrations, in order to validate the experiment.

[1] = tested on: rings of the thoracic region of the aorta (aortic smooth muscles); test: Potassium channel opener activity: in vitro relaxant power on rings of the thoracic region of the aorta contracted with KCl; type: cell-based; conditions: for mixed activity (potassium channel opener/antiandrogen): conclusion from Tables I and II; for IC50: read-out: Inhibition contraction isolated aorta induced by K+: IC50
Procedure: Measurement of the Activity of "Potassium Channel Opener" Type of the Ethyl Ester of (4-Cyano-3-(trifluoromethyl)phenyl)(3,3,3-trifluoro-2-hydroxy-2-methylpropionyl)carbamic Acid (Example 1) and of (4-cyano-3-(trifluoromethyl)phenyl)(3,3,3-trifluoro-2-hydroxy-2-methylpropionyl)carbamic Acid (Example 2) by the in Vitro Measurement of the Relaxant Power of the Molecules on Rings of the Thoracic Region of the Aorta (IC50):
The experiments were carried out according to the techniques of Newgreen et al. (Br. J. Pharmacol., 100, p. 605-613 (1990)), Bray et al. (Arch. Pharmacol., 344, p. 351-359 (1991)) and Wickerden et al. (Br. J. Pharmacol., 103, 1148-1152 (1991)).
After they had been mounted into the isolated organ vessels, the tissues (aortic smooth muscles) were subjected to an initial tension of 2 g.
After an equilibration period, the tissues were exposed to a potassium chloride solution (20 mM KCl), in order to obtain a sustained contractile response.
After stabilization of this contractile response, the relaxant activity (of potassium channel opener type) of the test molecules was evaluated as a function of the concentration applied.
During the experimentation, two reference molecules were employed: cromakalim and minoxidil.

[2] = 20 mM KCl, thoracic aorta rings, initial tension 2 g

IC50 [1, 2] [µM]	SMILES	IC50 (androgen receptor) [µM]	mixed activity (potassium channel opener/antiandrogen) [1]	IC50 [1] [µM]
	CCOC(=O)N(C(=O)C(C)(O)C(F)(F)F)c1ccc(C#N)c(C(F)(F)F)c1 (centres unmarked) [Example 1, Ethyl Ester of (4-Cyano-3-(trifluoromethyl)phenyl)(3,3,3-trifluoro-2-hydroxy-2-methylpropionyl)carbamic Acid]	2	mixed activity	2
	CC(O)(C(=O)N(C(=O)O)c1ccc(C#N)c(C(F)(F)F)c1)C(F)(F)F (centres unmarked) [Example 2, (4-Cyano-3-(trifluoromethyl)phenyl)(3,3,3-trifluoro-2-hydroxy-2-methylpropionyl)carbamic Acid]	4	mixed activity	3
~1	CC1(C)Oc2ccc(C#N)cc2C(N2CCCC2=O)C1O (centres unmarked) [cromakalim, reference compound]			
~1	Nc1cc(N2CCCCC2)nc(N)[n+]1[O-] [minoxidil, 2,4-diamino-6-piperidinopyrimidine 3-oxide, reference compound]			
